Columns and labels:
heparanase [1] = target: T1, heparanase (Homo sapiens, UniProt Q9Y251); experiment: Activation of compounds by recombinant heparanase (fluorescence response); format: biochemical
T1 sequence (Q9Y251 36-543): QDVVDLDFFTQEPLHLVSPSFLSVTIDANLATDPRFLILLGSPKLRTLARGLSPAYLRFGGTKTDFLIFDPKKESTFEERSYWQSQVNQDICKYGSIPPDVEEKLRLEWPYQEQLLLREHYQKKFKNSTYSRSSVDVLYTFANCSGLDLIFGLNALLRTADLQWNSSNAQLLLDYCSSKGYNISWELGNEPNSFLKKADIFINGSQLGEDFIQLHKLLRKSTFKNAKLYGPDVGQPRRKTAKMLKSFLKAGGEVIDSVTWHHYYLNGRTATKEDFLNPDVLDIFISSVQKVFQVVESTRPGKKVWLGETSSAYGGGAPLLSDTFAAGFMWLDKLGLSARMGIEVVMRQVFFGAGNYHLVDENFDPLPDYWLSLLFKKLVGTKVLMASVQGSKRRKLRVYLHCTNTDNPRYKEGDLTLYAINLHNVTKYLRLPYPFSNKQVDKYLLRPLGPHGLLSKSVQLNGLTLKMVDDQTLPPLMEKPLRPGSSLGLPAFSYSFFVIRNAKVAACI
Procedure: To a solution of 20 μL, of 50 μM compound 1 (HADP) and 160 μL 40 mM NaOAc (pH=5.0) was added 20 μL, 0.1 μg/μL heparanase to obtain 5 μM 1 (HADP) with 2 μg heparanase solution. After incubation at 37° C. for 2 h, the reaction solution was transferred to quartz cuvettes to measure absorbance or fluorescence. Absorbance spectrum scan range from 250 nm to 500 nm (1 nm increment). fluorescence spectrum setting: λex=365 nm, Slit Width 2.5 nm. Emission was record from 400 nm to 600 nm, Slit Width 5 nm. Absorption spectra were recorded on Shimadzu UV-2700 UV-VIS Spectrophotometer. Fluorescence spectra were recorded on Fluorolog TAU-3 Spectrofluorometer with a xenon lamp (Jobin Yvon-Spex, Instruments S. A., Inc.)
Fluorescence micro cells was charged with 20 μL, of 50 μM compound 1 (HADP) and 160 μL 40 mM NaOAc (pH=5.0). Then 20 μL, 0.05 μg/μL heparanase was added to the above solution. Fluorescence spectra were recorded from 0 min to 3 h. fluorescence spectrum setting: λex=365 nm, Slit Width 2.5 nm. Emission was record from 400 nm to 600 nm, Slit Width 5 nm.
To a solution of 20 μL, of 50 μM each compound and 160 μL, 40 mM NaOAc (pH=5.0) was added 20 μL, 0.05 μg/μL heparanase to obtain 5 μM each compound with 1 μg heparanase solution in 96-well microplate. Each compound was performed in triplicate. Then the microplate was sealed with sealing film and incubated at 37° C. Fluorescence intensity was recorded on Spectramax M5 Multimode plate reader (Molecular Devices, USA) at each timepoint. λex/em=365 nm/455 nm.
(§1) 5 μM compound 1 (HADP) was incubated with various biological species at the indicated amount/concentration in 96-well microplate. Cysteine (5 mM), Glutathione (5 mM), H2O2 (100 μM), Esterase, Chondroitinase ABC, Hyaluronidase, Lysozyme, β-Glucuronidase, β-Glucosidase (5 μg each) and heparanase (2 μg). For Chondroitinase ABC and Hyaluronidase, 50 μg was also tested. Each sample was performed in triplicates. Then the microplate was sealed with sealing film and incubated at 37° C. for 4 hours. Fluorescence intensity was recorded on Spectramax M5 Multimode plate reader (Molecular Devices, USA). λex/em=365 nm/455 nm.

heparanase [2] = target: T1, heparanase; experiment: HPLC analysis of compounds 1-4 with heparanase; format: biochemical; details: 5 μM, heparanase 1 μg, 4 hours, 37° C., NaOAc pH 5.0
Procedure: Heparanase (1 μg, 20 μL) was added to the compounds 1-4 solution (180 μL, 5 μM) in 40 mM NaOAc buffer (pH 5.0) and the mixture was incubated for 4 hours at 37° C. The resulting mixtures were injected into HPLC for analysis. HPLC analysis was performed under the following conditions—mobile phase A: water with 0.1% TFA; B: acetonitrile with 0.1% TFA; 0-20 min: gradient elution, 25-95% B. The trace was monitored by DAD detector at 315 nm.

[3] = Fluorescence response to biological oxidizing and reducing species; details: 5 μM; 100 μM H2O2, 5 mM GSH and Cys; 4 h, 37° C.
Procedure: as §1

Hyaluronidase = experiment: Fluorescence response to biological species: hyaluronidase; format: biochemical; details: 5 μM; hyaluronidase 5 μg (50 μg also tested); 4 h, 37° C.
Procedure: as §1

[4] = Selectivity toward heparanase against interfering biological molecules and enzymes; format: biochemical
Procedure: as §1

[5] = pH profile of fluorescence / pKa; format: physicochemical; details: pH range from 1 to 13
Procedure: So, pH profiles of the fluorophore DiFMU and Compound 1 (HADP) were evaluated. […] In contrast, the pKa of 4-methylumbelliferone is ca. 7.8. […] Moreover, the introduction of the fluorine substituents increased the quantum yield and improved the photostability, enabling highly sensitive detection for heparanase.

- fluorescence response towards heparanase (heparanase [1]; 5 μM compound, 1 μg heparanase, 40 mM NaOAc buffer (pH 5.0), 37° C., λex/em=365 nm/455 nm): significant fluorescence enhancement
- fluorescence enhancement turn-on ratio at 450 nm (heparanase [1]; 5 μM, heparanase 2 μg (0.01 μgμl-1), after 2 hours, NaOAc pH 5.0): up to 756 fold
- fluorescence off-on response to heparanase in selectivity panel (heparanase [1]; 5 μM, heparanase 2 μg, 4 h, 37° C.): largest “off-on” response
- time at which fluorescence reached a plateau (heparanase [1]; HADP 5 μM, heparanase 1 μg): 2.5 h
- time at which the enzymatic reaction was completed after addition of heparanase (heparanase [1]; heparanase 2 μg, 5 μM probe): 40 min
- cleavage by heparanase (HPLC trace) (heparanase [2]): clean conversion
- selectivity for heparanase over other competitive analytes [4]: excellent selectivity
- fluorescence increase upon addition of other molecules and enzymes ([4]; 5 μM, superphysiological levels, 4 h, 37° C.): no fluorescence increase
- fluorescence change at 455 nm over pH [5]: no remarkable fluorescence change
Compound: Cc1cc(=O)oc2c(F)c(O[C@@H]3O[C@H](C(=O)O)[C@@H](O[C@H]4O[C@H](CO)[C@@H](O)[C@H](O)[C@H]4NS(=O)(=O)O)[C@H](O)[C@H]3O)c(F)cc12 [Compound 1]
- fluorescence change [3]: No fluorescence change
- fluorescence change (Hyaluronidase): did not afford obvious fluorescence change

Source: patent US20220202964A1, “HEPARANASE COMPOUNDS AND METHODS OF USE” (University of Florida Research Foundation, Incorporated, priority 2019, published 2022)
